Activity data for 6 compounds are collected here from ChEMBL document CHEMBL4616686, “PROTAC Compounds Targeting α-Synuclein Protein for Treating Neurogenerative Disorders: Alzheimer's and Parkinson's Diseases” (ACS Med Chem Lett, 2020).

Structures are written as SMILES.

For the experiment, the species on record is Homo sapiens. The experiment in a line: Protac activity at E3 ubiquitin ligase/alpha-syn expressed in human HEK293/TREx A53T cells assessed as alpha-synuclein degradation measured as amount of protein remaining at 1 uM by ELISA relative to control. Type of experiment: cell-based. A general note: ELISA stands for enzyme-linked immunosorbent assay.
As for `Cc1ncsc1-c1ccc([C@H](C)NC(=O)[C@@H]2C[C@@H](O)CN2C(=O)[C@@H](NC(=O)CN2CCN(CCN3CCC(O[C@H]4C[C@H](Oc5ccc6c(c5)Sc5cc([N+](=O)[O-])ccc5N6)C4)CC3)CC2)C(C)(C)C)cc1`, the Activity is under 35%.
For `O=C1CCC(N2C(=O)c3ccc(N4CCN(CCCO[C@H]5C[C@H](Oc6ccc7c(c6)Sc6cc([N+](=O)[O-])ccc6N7)C5)CC4)cc3C2=O)C(=O)N1` (stereo partly specified), the Activity fell in the range of 35 to 70%.
Next, `CNc1ccc(-c2nc3ccc(OCCOCCOCCOCCOCCOCCOCC(=O)N[C@H](C(=O)N4C[C@H](O)C[C@H]4C(=O)N[C@@H](C)c4ccc(-c5scnc5C)cc4)C(C)(C)C)cc3s2)cc1`: under 35%.
Next, `Cc1ncsc1-c1ccc([C@H](C)NC(=O)[C@@H]2C[C@@H](O)CN2C(=O)[C@@H](NC(=O)COCCOCCOc2ccc(CN3C(=O)/C(=C/C=C/c4ccc([N+](=O)[O-])cc4)c4ccccc43)cc2)C(C)(C)C)cc1`: 35 to 70%; `CNc1ccc(-c2nc3ccc(OCCOCCOCCOCCOCCOCC(=O)N[C@H](C(=O)N4C[C@H](O)C[C@H]4C(=O)N[C@@H](C)c4ccc(-c5scnc5C)cc4)C(C)(C)C)cc3s2)cc1`: under 35%.
As to `CNc1ccc(-c2nc3ccc(OCCOCCOCC(=O)N[C@H](C(=O)N4C[C@H](O)C[C@H]4C(=O)N[C@@H](C)c4ccc(-c5scnc5C)cc4)C(C)(C)C)cc3s2)cc1`, the Activity was under 35%.
